Test results as given in patent US5994303A, “Use of insulin and IGF-I” (Chiron Corporation, priority 1994, dated 1999).
“Also recorded” adds a separate entry of the source.

Key:
Male Sprague-Dawley rats [1] = test: Example 1: dexamethasone-treated rats infused with saline, rhGH or rhIGF-I; body weight gain and nitrogen retention; type: in vivo, rat; settings: for Retention of nitrogen (nitrogen balance): 8 days infusion with Dex, rhIGF-I 500 per day vs saline or rhGH
Procedure: On day zero the rats were anaesthetized intraperitoneally with 0.4 ml per 100 g body weight of a mixture of Rompun (20 mg·ml^-1), Ketalar (50 mg·ml^-1) and Saline (0.9%) in 1:2:3 volume proportions. The hair on the back of the rats was shaved off and the exposed skin carefully washed with 0.05% chlorhexidine (Pharmacia, Stockholm, Sweden) and 0.4% jodopax (Molnlycke, Goteborg, Sweden), both being diluted in 70% alcohol. Two mutually parallel incisions, each of 15 mm in length, were then made along the dorsal midline. The incisions penetrated the epidermis, dermis and subcutaneous muscle but left the deep fascia intact. Two subcutaneous pockets were made on both sides of the incisions by separating the subcutaneous muscle from the deep fascia. One (Exp. I) or two (Exp. 2) mini-pumps were implanted in each pocket. The wounds were closed with sutures 4-0 Johnson & Johnson). Osmotic mini-pumps (Alzet 2001, Alza Corporation, Palo Alto, USA) releasing 1 μl·h^-1 for 8 days were used for continuous delivery of hormones and Dex to the animals. The pumps were filled to a volume of 0.22 ml with solutions of rhGH (14.4 mg·ml^-1, Genotropin®, Pharmacia), rhIGF-I (20 mg·ml^-1, Igef®, Pharmacia, Kabi Peptide Hormones, Stockholm, Sweden), insulin (1.57 mg/ml, Actrapid®, Novo, Copenhagen, Denmark), Dex (1.04 mg·ml^-1, Decadron, Merck Sharp & Dohme International, […], USA) or Saline (0.9%). Two (Example 1) or four (Example 2) pumps combined as described above were implanted in each rat. Implantation of the pumps was performed under strictly aseptic conditions. Total feed intake was registered throughout the full 8 day experimental period. Urine and faeces were collected daily, pooled and kept at -20° C. until analysed. Excreta was collected by housing the animals in individual metabolism cages that were specially designed for the separation of urine and faeces. In order to inhibit urease-activity in the urine, 1 ml of 5% sulphuric acid was pipetted every morning in the collection vessels. The 24 hour collections of urine were pooled individually for each treatment period and immediately frozen after the collection. Similarly, the samples of faeces were also pooled individually for each treatment period and kept frozen (-20° C.) until analysis. Urea in serum was determined spectrophotometrically by using the Urea UV Uni-Kit II (Roche) with an autoanalyzer (Cobas Mira, Roche Co, Basel, Switzerland). Urea values were expressed in mmol/l. The total nitrogen content in urine was determined with the aid of the Antek Pyro-Chemilumicence Nitrogen System. The apparatus used comprised the […] nitrogen analyser with Liquid Auto Sampler 736-2 and a pyrolysis tube with a ceramic […] Instruments Inc., Houston, Tex., U.S.A.). The frozen urinary samples were thawed and diluted 1:100 with 0.1 M HCl and then analysed. The urinary nitrogen values were then calculated as mg nitrogen excreted. Total nitrogen in faeces was determined by an established Kjeldahl method (Kjeltec System, Tecator AB, Halsingborg, Sweden). The frozen faecal samples were thawed and dried in an oven at 60° C. overnight. The weight of the dried sample was noted and the sample then ground. 0.20 g of the milled faecal sample was mixed in a Kjeldahl digestion tube with 10.0 ml of concentrated sulphuric acid. 2.0 ml of a 30% solution of H2 O2 (30% Perhydrol, Merck, Darmstadt, Germany) was added and mixed carefully. One catalyst tablet (Kjeltabs C A, Thompson & Capper, Runcom, Cheshire, UK) was added to each sample. The mixture was digested at 380° C. for at least one hour or until complete bleaching of the sample was achieved. […] The faecal nitrogen values were calculated as mg nitrogen excreted. Data were subjected to a one-way analysis of variance in which the effect of treatment was considered the prime source of variation. Calculations were executed by the GLM procedure of the SAS program (SAS 1985). […]

Male Sprague-Dawley rats [2] = test: Example 2: dexamethasone-treated rats infused with insulin, rhGH, rhIGF-I and combinations; feed intake, nitrogen digestion and retention, serum urea; type: in vivo, rat; settings: for Feed intake / feed consumption (in words) / Nitrogen balance / nitrogen wasting induced by dexamethasone (in words) / Relative nitrogen retention (retained N/digested N x 100): 8 days infusion; for Nitrogen balance / nitrogen wasting induced by dexamethasone (in words): Dex 26 ug/day with or without peptides; for Relative nitrogen retention (retained N/digested N x 100): Dex 26 ug/day with peptides: insulin 39, rhGH 360, rhIGF-I 500 ug/day, mean, pooled SE
Procedure: On day zero the rats were anaesthetized intraperitoneally with 0.4 ml per 100 g body weight of a mixture of Rompun (20 mg·ml^-1), Ketalar (50 mg·ml^-1) and Saline (0.9%) in 1:2:3 volume proportions. The hair on the back of the rats was shaved off and the exposed skin carefully washed with 0.05% chlorhexidine (Pharmacia, Stockholm, Sweden) and 0.4% jodopax (Molnlycke, Goteborg, Sweden), both being diluted in 70% alcohol.
Two mutually parallel incisions, each of 15 mm in length, were then made along the dorsal midline. The incisions penetrated the epidermis, dermis and subcutaneous muscle but left the deep fascia intact. Two subcutaneous pockets were made on both sides of the incisions by separating the subcutaneous muscle from the deep fascia. One (Exp. I) or two (Exp. 2) mini-pumps were implanted in each pocket. The wounds were closed with sutures 4-0 Johnson & Johnson).
Osmotic mini-pumps (Alzet 2001, Alza Corporation, Palo Alto, USA) releasing 1 μl·h^-1 for 8 days were used for continuous delivery of hormones and Dex to the animals. The pumps were filled to a volume of 0.22 ml with solutions of rhGH (14.4 mg·ml^-1, Genotropin®, Pharmacia), rhIGF-I (20 mg·ml^-1, Igef®, Pharmacia, Kabi Peptide Hormones, Stockholm, Sweden), insulin (1.57 mg/ml, Actrapid®, Novo, Copenhagen, Denmark), Dex (1.04 mg·ml^-1, Decadron, Merck Sharp & Dohme International, Rathway, USA) or Saline (0.9%). Two (Example 1) or four (Example 2) pumps combined as described above were implanted in each rat. Implantation of the pumps was performed under strictly aseptic conditions.
Total feed intake was registered throughout the full 8 day experimental period. Urine and faeces were collected daily, pooled and kept at -20° C. until analysed. Excreta was collected by housing the animals in individual metabolism cages that were specially designed for the separation of urine and faeces. In order to inhibit urease-activity in the urine, 1 ml of 5% sulphuric acid was pipetted every morning in the collection vessels. The 24 hour collections of urine were pooled individually for each treatment period and immediately frozen after the collection. Similarly, the samples of faeces were also pooled individually for each treatment period and kept frozen (-20° C.) until analysis.
Blood samples were taken on day zero and on the last day of the experiment. During anaesthesia, blood was withdrawn quickly from the orbital plexus by using a glass capillary. On each sampling occasion 0.75 ml blood was taken 5 from each animal. One third (0.25 ml) of the blood sample was collected in a microtainer tube containing EDTA (Beckton and Dickinson) for analysis of glucose. Serum was prepared from the remaining blood sample (0.5 ml) in accordance with standard methods and analysed for urea.
Urea in serum was determined spectrophotometrically by using the Urea UV Uni-Kit II (Roche) with an autoanalyzer (Cobas Mira, Roche Co, Basel, Switzerland). Urea values were expressed in mmol/l. The total nitrogen content in urine was determined with the aid of the Antek Pyro-Chemilumicence Nitrogen System. The apparatus used comprised the Antek 7000N nitrogen analyser with Liquid Auto Sampler 736-2 and a pyrolysis tube with a ceramic liner (Antek Instruments Inc., Houston, Tex., U.S.A.). The frozen urinary samples were thawed and diluted 1:100 with 0.1 M HCl and then analysed. The urinary nitrogen values were then calculated as mg nitrogen excreted.
Total nitrogen in faeces was determined by an established Kjeldahl method (Kjeltec System, Tecator AB, Halsingborg, Sweden). The frozen faecal samples were thawed and dried in an oven at 60° C. overnight. The weight of the dried sample was noted and the sample then ground. 0.20 g of the milled faecal sample was mixed in a Kjeldahl digestion tube with 10.0 ml of concentrated sulphuric acid. 2.0 ml of a 30% solution of H2 O2 (30% Perhydrol, Merck, Darmstadt, Germany) was added and mixed carefully.

[3] = 8 days s.c. mini-pump infusion, at every Dex dose (26, 13 or 6.5 per day), rhGH 360, rhIGF-I 500 per day, vs saline

In the case of `C[C@@H]1C[C@H]2[C@@H]3CCC4=CC(=O)C=C[C@]4(C)[C@@]3(F)[C@@H](O)C[C@]2(C)[C@@]1(O)C(=O)CO` [Dex, dexamethasone, reference compound], the Body weight gain (Male Sprague-Dawley rats [1]; [3]) is reported as “general decrease with increased Dex dose”, the “Feed intake / feed consumption (in words)” value (Male Sprague-Dawley rats [2]) is reported as “generally decreased feed intake” and the “Nitrogen balance / nitrogen wasting induced by dexamethasone (in words)” value (Male Sprague-Dawley rats [2]) is reported as “decrease the nitrogen balance dramatically”. The “Relative nitrogen retention (retained N/digested N x 100)” value (from here on “Relative nitrogen retention”) (Male Sprague-Dawley rats [2]) was 7.2% and the “Reduction of feed intake” value (Male Sprague-Dawley rats [2]; Dex 26 per day, 8 days) was “approximately 20%”.
In the case of insulin: insulin (Actrapid, Novo), the “Nitrogen balance / nitrogen wasting induced by dexamethasone (in words)” value (Male Sprague-Dawley rats [2]) is reported as “without effect” and the “Relative nitrogen retention” value (Male Sprague-Dawley rats [2]) is reported as 11.9%.
“rhGH: recombinant human growth hormone (Genotropin, Pharmacia)” was tested, and the “Retention of nitrogen (nitrogen balance)” value (Male Sprague-Dawley rats [1]) was “followed the same pattern”, the Body weight gain (Male Sprague-Dawley rats [1]; 8 days infusion, at the medium and high Dex infusion dose) was “negative values for body weight gain” and the Body weight gain (Male Sprague-Dawley rats [1]; [3]) was “the opposite effect”. The “Nitrogen balance / nitrogen wasting induced by dexamethasone (in words)” value (Male Sprague-Dawley rats [2]) was “not found to counteract the nitrogen wasting induced by dexamethasone”, the “Nitrogen balance / nitrogen wasting induced by dexamethasone (in words)” value (Male Sprague-Dawley rats [2]; listed as GH) was “without effect” and the “Relative nitrogen retention” value (Male Sprague-Dawley rats [2]) was 3.8%.
With “rhIGF-I: recombinant human insulin-like growth factor I (Igef, Pharmacia)” the “Retention of nitrogen (nitrogen balance)” value (Male Sprague-Dawley rats [1]) was “significantly (p<0.05) higher; also recorded: followed the same pattern”, the Body weight gain (Male Sprague-Dawley rats [1]; [3]) was “significantly (p<0.05) higher weight gain in comparison with saline; also recorded: significantly (p<0.05) increased” and the “Feed intake / feed consumption (in words)” value (Male Sprague-Dawley rats [2]) was “slightly stimulated feed consumption”. For the same molecule, the “Nitrogen balance / nitrogen wasting induced by dexamethasone (in words)” value (Male Sprague-Dawley rats [2]) was “decreased significantly the wasting of nitrogen induced by dexamethasone” and the “Relative nitrogen retention” value (Male Sprague-Dawley rats [2]) was 23.0%.
